The values below come from publication PMC11858841, “Intravenous Nanoemulsions Loaded with Phospholipid Complex of a Novel Pyrazoloquinolinone Ligand for Enhanced Brain Delivery” (Pharmaceutics, 2025).

SMILES strings stand for the structures. ≈ marks a conversion by molar mass, not a printed value.

The nature of data set [1]: In vitro permeation through iPSC-derived blood–brain barrier model. The data set is classed as in vitro ADME, human. The conditions noted are these: inserts without cells; read-out: recovery of CW-02-79 without cells.
Description: The in vitro BBB model based on the co-culture of iPSC-derived brain microvascular endothelial cells, astrocytes, and pericytes was used to estimate the transport of CW-02-79 into the brain from the developed nanoemulsions (the protocol used is available on the manufacturer’s website: iCell Blood Brain Barrier Isogenic Kit protocol, FujiFilm Cellular Dynamic Inc., Madison, WI, USA) [24]. Cell culture inserts for BBB co-cultures (pore size 0.4 µm, effective cell growth area 0.33 cm^2, Falcon®, Corning Inc., Salt Lake City, UT, USA) were coated on the apical side with a fibronectin-collagen IV matrix and on the basolateral side with a 0.1% gelatin solution. Then, astrocyte and pericyte suspensions were seeded on the basolateral side, with brain microvascular endothelial cells in the apical region of inserts, followed by overnight incubation at 37 °C and 5% CO2. […]
The total volume on the basolateral side was compensated with 100 µL of the fresh termostated medium. […] The mass balance (%) was also determined based on the amount of CW-02-79 determined in both the apical and basolateral compartments at the end of the assay divided by the total amount of CW-02-79 placed in the apical compartment to assess the potential adsorption to plastic or non-specific binding to cells.
Data set [2] relates to σ2 receptors. The data set can be described thus: PDSP binding study, σ2 receptors. The note with it: versus the other four hits of the primary screen.
Data set [3] relates to GABAA receptors that contain any of the α1 to α6 subunits. More on the design: method as in personal communication with Dr. Janet Fisher. The conditions noted are these: 10 µM; ref personal communication with Dr. Janet Fisher; cited from earlier work.
For another data set, the target named is 5-HT7 receptor. Also noted: method as in PDSP Ki database https://pdspdb.unc.edu/databases/kidb.php. The note with it: ref PDSP Ki database https://pdspdb.unc.edu/databases/kidb.php; cited from earlier work.
On the set-up of data set [4]: method as in unpublished data, MM Savić and B Divović Matović. The note with it: doses 1 to 30 mg/kg; ref unpublished data, MM Savić and B Divović Matović; cited from earlier work.
The target of data set [5] is benzodiazepine binding site at GABAA receptors. More on the design: method as in PDSP Ki database https://pdspdb.unc.edu/databases/kidb.php. The note with it: ref PDSP Ki database https://pdspdb.unc.edu/databases/kidb.php; cited from earlier work.
The target of a further data set is histamine H2 receptor. Also noted: method as in PDSP Ki database https://pdspdb.unc.edu/databases/kidb.php. The conditions noted are these: ref PDSP Ki database https://pdspdb.unc.edu/databases/kidb.php; cited from earlier work.
The nature of data set [6]: Solubility, shake-flask method. The conditions noted are these: thermodynamic from solid. The data set is classed as physicochemical. Here is the method:
The solubility of CW-02-79 in selected oils, organic solvents, and water solutions of various pH values was examined by using the shake-flask method, by adding an excess amount of CW-02-79. The blends were mixed on a vortex mixer for 24 h at 25 ± 2 °C to reach equilibrium. The samples were centrifuged (1000× g, 10 min, 25 °C) on a MiniSpin® plus centrifuge (Eppendorf, Hamburg, Germany). The concentration of CW-02-79 was determined after proper dilution of the supernatant with isopropanol using the LC-MS/MS method.
The concentration of CW-02-79 was determined using a LC-MS/MS method. The analysis was performed on a UHPLC chromatograph ACELLA (Thermo Fisher Scientific Inc., Madison, WI, USA), coupled to a triple quadrupole mass spectrometer TSQ Quantum Access MAX (Thermo Fisher Scientific Inc., Madison, WI, USA) with a heated electrospray ionization (HESI) interface. The column was XTerra MS C18 (150 mm × 2.1 mm, […] particle size). The mobile phase was acetonitrile/0.1% formic acid = 70:30 (v/v), the flow rate was 0.2 mL min^−1, the column temperature was set to 35 °C, and the injection volume was 10 µL. CW-02-79 and the internal standard were detected and quantified in the positive HESI mode (m/z = 389.90–345.90 and m/z = 349.00–304.11, respectively).

The target of a further data set is dopamine transporter. More on the design: method as in PDSP Ki database https://pdspdb.unc.edu/databases/kidb.php. The conditions noted are these: ref PDSP Ki database https://pdspdb.unc.edu/databases/kidb.php; cited from earlier work.
For data set [7], the target named is σ2 receptors. More on the design: method as in PDSP Ki database https://pdspdb.unc.edu/databases/kidb.php. The conditions noted are these: ref PDSP Ki database https://pdspdb.unc.edu/databases/kidb.php; cited from earlier work.

For `COc1ccc2c3nn(-c4ccc(OC(F)(F)F)cc4)c(=O)c-3c[nH]c2c1C` [CW-02-79, 7-methoxy-6-methyl-2-(4-(trifluoromethoxy)phenyl)-2,5-dihydro-3H-pyrazolo [4,3-c]quinolin-3-one], the recovery at 24 h, 3 µM in [1] was approximately 100%. Further, in the data set with σ2 receptors [2], the “selectivity for σ2 receptors” value was not below 20 fold. Also, in data set [3], the “modulation of GABAA receptors” value is “does not at all modulate”. Further, the Ki on 5-HT7 receptor was 2.4 µM; in data set [5] it was 4.7 µM; on histamine H2 receptor it was 5.2 µM; at dopamine transporter, more than 10 µM; at σ2 receptors [7] it was 0.112 µM. Moreover, the “signs of sedation or motor incapacitation” value in data set [4] is reported as “no signs of sedation or motor incapacitation”. Besides, the solubility at 24 h worked out at 11.8 ± 0.7 µg/mL (≈ 30.3 µM) in [6] (aqueous buffer, Phosphate buffer, pH 7.4, 25 °C); 27.96 ± 0.03 µg/mL (≈ 71.8 µM) in data set [6] (oil or lipid, Castor oil, 25 °C); 34.19 ± 0.06 µg/mL (≈ 87.8 µM) in [6] (oil or lipid, Fish oil, 25 °C); 49.93 ± 0.07 µg/mL (≈ 128 µM) in data set [6] (oil or lipid, MCT, 25 °C); 218.4 ± 0.3 µg/mL (≈ 561 µM) in data set [6] (oil or lipid, MCT:castor oil (1:1, w/w), 25 °C); 41.41 ± 0.04 µg/mL (≈ 106 µM) in data set [6] (oil or lipid, MCT:soybean oil (1:1, w/w), 25 °C). In addition, the solubility at 24 h in data set [6] (oil or lipid, Soybean oil, 25 °C) was 65.68 ± 0.43 µg/mL (≈ 169 µM); in data set [6] (organic solvent or mixture, DMSO, 25 °C) it was more than 30000 µg/mL; in [6] (organic solvent or mixture, Isopropanol, 25 °C) it was 5750 µg/mL (≈ 14800 µM); in data set [6] (organic solvent or mixture, Methanol, 25 °C), 939.1 ± 3.53 µg/mL (≈ 2410 µM); in data set [6] (simulated gastric fluid, 0.1M HCl, 25 °C) it was 12.3 ± 0.61 µg/mL (≈ 31.7 µM); in [6] (Ultrapure water, 25 °C), 11.8 ± 0.2 µg/mL (≈ 30.2 µM).
